The results in this text go back to the NIST ThermoML archive (doi:10.1021/je100143k).

± gives the expanded uncertainty stated by the source.

The conditions of the series: Liquid, Ebulliometric method (Recirculating still).

As usually defined, the vapor or sublimation pressure is the equilibrium pressure above the liquid or solid. Regarding `FC(F)C(F)F` [1,1,2,2-tetrafluoroethane], the “vapor or sublimation pressure” value is reported as 155 ± 10 kPa (263.15 K), 189 ± 10 kPa (268.15 K), 276 ± 10 kPa (278.15 K) and 386 ± 10 kPa (288.15 K).
`CCF` [fluoroethane]: the “vapor or sublimation pressure” value came to 311 ± 10 kPa (263.15 K), 372 ± 10 kPa (268.15 K), 517 ± 10 kPa (278.15 K) and 700 ± 10 kPa (288.15 K).
